ChEMBL document CHEMBL5150044, “Macrocyclization of Quinazoline-Based EGFR Inhibitors Leads to Exclusive Mutant Selectivity for EGFR L858R and Del19” (J Med Chem, 2022)
pIC50: −log10 of the molar value. Active and inactive are the calls of the source. No cut-off for these calls is given here.

Experiments:
[1] = molecular target: Epidermal growth factor receptor (Homo sapiens, UniProt P00533, EX19DEL)
[2] = molecular target: T1, Cyclin-G-associated kinase (Homo sapiens) (UniProt O14976); experiment: Binding affinity to recombinant GAK (unknown origin) assessed as change in melting temperature 10 uM by differential scanning fluorimetry
T1 sequence (whole entry): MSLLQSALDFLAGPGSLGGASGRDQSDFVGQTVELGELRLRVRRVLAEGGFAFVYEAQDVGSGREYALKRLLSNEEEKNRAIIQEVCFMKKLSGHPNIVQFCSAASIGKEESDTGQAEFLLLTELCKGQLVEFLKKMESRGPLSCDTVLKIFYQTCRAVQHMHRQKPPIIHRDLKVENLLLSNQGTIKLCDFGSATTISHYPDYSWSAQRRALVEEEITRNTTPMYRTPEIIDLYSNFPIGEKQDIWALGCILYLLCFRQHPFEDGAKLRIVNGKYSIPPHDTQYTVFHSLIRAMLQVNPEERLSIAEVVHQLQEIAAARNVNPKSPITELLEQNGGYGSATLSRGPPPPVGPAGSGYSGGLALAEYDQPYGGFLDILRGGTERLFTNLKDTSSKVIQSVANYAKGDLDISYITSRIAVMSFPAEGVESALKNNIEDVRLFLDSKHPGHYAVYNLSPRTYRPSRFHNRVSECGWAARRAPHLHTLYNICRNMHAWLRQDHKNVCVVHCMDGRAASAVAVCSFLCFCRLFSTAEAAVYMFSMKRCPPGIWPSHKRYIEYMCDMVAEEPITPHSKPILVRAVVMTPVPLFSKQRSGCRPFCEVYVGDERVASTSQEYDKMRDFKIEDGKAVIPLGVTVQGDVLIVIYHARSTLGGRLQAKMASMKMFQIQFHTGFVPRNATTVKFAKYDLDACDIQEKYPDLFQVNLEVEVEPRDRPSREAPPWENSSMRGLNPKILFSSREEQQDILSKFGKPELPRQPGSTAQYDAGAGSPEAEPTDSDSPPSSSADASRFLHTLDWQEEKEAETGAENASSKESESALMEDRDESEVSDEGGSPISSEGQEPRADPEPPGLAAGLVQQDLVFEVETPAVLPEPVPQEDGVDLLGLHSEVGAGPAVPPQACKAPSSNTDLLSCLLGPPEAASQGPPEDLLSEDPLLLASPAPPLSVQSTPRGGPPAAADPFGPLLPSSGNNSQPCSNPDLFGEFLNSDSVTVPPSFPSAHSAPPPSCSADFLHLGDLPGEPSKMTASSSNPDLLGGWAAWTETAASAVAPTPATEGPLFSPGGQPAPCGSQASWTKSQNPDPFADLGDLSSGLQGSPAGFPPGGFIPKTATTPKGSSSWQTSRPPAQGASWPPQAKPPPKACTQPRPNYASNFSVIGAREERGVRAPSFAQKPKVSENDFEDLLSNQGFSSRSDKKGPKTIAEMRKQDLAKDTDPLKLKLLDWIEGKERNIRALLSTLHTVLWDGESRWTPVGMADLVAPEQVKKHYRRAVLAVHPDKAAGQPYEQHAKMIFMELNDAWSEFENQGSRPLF

[3] = molecular target: BMP-2-inducible protein kinase (Homo sapiens) (UniProt Q9NSY1); experiment: Binding affinity to recombinant BMP2K (unknown origin) assessed as change in melting temperature 10 uM by differential scanning fluorimetry
[4] = molecular target: T2, Serine/threonine-protein kinase 17A (Homo sapiens) (UniProt Q9UEE5); experiment: Binding affinity to recombinant STK17A (unknown origin) assessed as change in melting temperature 10 uM by differential scanning fluorimetry
T2 sequence (whole entry): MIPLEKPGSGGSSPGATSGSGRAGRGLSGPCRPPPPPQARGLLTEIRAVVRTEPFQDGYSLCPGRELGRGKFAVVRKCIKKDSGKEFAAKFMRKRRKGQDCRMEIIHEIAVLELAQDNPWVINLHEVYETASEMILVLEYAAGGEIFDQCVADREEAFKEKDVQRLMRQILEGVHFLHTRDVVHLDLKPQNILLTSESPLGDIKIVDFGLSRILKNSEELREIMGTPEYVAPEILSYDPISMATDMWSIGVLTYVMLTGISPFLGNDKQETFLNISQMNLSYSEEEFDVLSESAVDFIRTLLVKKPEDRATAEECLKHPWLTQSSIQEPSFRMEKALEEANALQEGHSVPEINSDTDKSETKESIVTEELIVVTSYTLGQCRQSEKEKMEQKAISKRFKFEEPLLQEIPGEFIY

[5] = molecular target: T3, Serine/threonine-protein kinase 17B (Homo sapiens) (UniProt O94768); experiment: Binding affinity to recombinant […] (unknown origin) assessed as change in melting temperature 10 uM by differential scanning fluorimetry
T3 sequence (whole entry): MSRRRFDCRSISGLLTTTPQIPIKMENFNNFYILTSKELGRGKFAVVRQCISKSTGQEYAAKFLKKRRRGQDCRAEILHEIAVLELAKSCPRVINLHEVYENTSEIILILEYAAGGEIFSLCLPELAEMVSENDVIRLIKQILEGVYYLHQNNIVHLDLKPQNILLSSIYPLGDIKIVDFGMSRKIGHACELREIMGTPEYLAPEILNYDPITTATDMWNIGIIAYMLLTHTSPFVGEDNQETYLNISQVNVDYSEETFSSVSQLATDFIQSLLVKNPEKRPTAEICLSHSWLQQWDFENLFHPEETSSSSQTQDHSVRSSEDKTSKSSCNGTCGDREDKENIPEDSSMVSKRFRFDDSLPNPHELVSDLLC

BaF3 [6] = experiment: cells; format: functional, cell-based; conditions: Mus musculus, BaF3, 72 h
[7] = molecular target: Mitogen-activated protein kinase 1 and 3 (ERK2 and ERK1) (Mus musculus) (UniProt P63085+Q63844); format: cell-based; conditions: BaF3, dose 10-1000 nM, time 8.0 hrs
[8] = molecular target: RAC-alpha serine/threonine-protein kinase (Mus musculus) (UniProt P31750); experiment: Inhibition of AKT phosphorylation in mouse BaF3 cells harboring L858R mutant assessed as […] phosphorylation at 10 to 1000 nM incubated for 8 hrs by Western blot analysis; format: cell-based; conditions: dose 10-1000 nM
[9] = molecular target: RAC-alpha serine/threonine-protein kinase (Mus musculus) (UniProt P31750); format: cell-based; conditions: BaF3, dose 10-1000 nM, time 8.0 hrs
BaF3 [10] = experiment: cells; conditions: Mus musculus, BaF3, 72 h

Chain of RAC-alpha serine/threonine-protein kinase (Mus musculus) (P31750 whole entry): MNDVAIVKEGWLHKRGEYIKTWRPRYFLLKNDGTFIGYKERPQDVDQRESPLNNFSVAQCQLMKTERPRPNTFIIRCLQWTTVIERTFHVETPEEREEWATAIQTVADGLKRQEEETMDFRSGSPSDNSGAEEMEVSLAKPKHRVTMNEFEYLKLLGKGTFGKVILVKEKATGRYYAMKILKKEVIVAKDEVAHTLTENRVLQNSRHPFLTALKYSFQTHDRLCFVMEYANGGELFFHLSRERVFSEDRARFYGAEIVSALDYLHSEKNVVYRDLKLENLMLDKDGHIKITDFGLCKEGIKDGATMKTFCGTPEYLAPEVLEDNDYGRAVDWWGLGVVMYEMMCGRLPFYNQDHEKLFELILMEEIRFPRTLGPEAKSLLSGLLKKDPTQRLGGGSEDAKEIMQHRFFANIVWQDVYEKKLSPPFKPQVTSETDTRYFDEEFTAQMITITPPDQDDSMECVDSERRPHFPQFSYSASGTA
Chain of Mitogen-activated protein kinase 1 and 3 (ERK2 and ERK1) (Mus musculus) (P63085 whole entry, looked up): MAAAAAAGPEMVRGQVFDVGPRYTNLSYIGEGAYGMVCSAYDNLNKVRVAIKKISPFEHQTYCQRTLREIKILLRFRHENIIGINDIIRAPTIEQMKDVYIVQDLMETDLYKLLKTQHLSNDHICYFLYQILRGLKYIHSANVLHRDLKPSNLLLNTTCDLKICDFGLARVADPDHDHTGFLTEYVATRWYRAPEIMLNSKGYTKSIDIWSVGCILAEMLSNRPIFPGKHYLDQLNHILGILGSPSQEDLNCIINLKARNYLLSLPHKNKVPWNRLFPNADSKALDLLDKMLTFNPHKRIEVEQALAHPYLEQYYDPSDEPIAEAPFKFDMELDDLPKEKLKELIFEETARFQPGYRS
Chain of Mitogen-activated protein kinase 1 and 3 (ERK2 and ERK1) (Mus musculus) (Q63844 whole entry, looked up): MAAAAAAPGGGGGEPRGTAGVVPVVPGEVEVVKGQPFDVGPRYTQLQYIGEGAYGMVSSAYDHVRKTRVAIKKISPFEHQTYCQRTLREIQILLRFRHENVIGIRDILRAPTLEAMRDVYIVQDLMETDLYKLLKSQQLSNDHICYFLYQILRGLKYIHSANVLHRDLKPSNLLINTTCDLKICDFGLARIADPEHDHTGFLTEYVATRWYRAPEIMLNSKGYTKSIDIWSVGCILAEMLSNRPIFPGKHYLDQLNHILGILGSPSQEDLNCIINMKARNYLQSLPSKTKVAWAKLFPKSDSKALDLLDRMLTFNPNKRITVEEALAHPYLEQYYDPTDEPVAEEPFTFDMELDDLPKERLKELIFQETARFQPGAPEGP
Chain of BMP-2-inducible protein kinase (Homo sapiens) (Q9NSY1 whole entry, looked up): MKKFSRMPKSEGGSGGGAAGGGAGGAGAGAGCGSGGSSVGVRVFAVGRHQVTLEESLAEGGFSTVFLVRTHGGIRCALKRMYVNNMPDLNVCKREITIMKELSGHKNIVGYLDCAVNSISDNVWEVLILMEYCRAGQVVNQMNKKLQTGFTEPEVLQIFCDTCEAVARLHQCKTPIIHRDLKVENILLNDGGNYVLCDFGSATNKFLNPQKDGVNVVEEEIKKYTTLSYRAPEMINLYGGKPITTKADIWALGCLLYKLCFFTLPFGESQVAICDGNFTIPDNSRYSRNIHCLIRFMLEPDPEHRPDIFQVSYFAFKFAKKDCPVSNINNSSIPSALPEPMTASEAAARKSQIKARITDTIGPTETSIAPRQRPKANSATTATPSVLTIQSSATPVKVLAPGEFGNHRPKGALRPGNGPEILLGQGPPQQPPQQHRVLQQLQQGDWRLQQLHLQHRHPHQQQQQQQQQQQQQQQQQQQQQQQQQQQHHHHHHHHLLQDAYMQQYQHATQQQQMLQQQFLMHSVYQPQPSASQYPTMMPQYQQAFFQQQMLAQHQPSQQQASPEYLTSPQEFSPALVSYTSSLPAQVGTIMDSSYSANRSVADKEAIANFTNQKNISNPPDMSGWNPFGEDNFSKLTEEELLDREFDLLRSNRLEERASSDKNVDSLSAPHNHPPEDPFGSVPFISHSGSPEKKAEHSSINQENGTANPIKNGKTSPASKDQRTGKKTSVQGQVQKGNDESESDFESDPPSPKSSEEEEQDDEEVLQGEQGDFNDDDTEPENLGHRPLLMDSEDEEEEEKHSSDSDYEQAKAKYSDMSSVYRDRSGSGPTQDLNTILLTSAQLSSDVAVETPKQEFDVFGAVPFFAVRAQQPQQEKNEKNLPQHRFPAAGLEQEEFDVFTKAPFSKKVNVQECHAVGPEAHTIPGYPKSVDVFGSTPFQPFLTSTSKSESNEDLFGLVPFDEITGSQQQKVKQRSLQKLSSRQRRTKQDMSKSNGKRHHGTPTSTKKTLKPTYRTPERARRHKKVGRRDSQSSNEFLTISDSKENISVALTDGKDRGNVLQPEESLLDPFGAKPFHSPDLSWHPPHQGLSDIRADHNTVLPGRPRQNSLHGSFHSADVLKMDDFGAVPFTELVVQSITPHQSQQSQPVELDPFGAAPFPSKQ
Chain of Epidermal growth factor receptor (P00533 whole entry, looked up, stated change not applied): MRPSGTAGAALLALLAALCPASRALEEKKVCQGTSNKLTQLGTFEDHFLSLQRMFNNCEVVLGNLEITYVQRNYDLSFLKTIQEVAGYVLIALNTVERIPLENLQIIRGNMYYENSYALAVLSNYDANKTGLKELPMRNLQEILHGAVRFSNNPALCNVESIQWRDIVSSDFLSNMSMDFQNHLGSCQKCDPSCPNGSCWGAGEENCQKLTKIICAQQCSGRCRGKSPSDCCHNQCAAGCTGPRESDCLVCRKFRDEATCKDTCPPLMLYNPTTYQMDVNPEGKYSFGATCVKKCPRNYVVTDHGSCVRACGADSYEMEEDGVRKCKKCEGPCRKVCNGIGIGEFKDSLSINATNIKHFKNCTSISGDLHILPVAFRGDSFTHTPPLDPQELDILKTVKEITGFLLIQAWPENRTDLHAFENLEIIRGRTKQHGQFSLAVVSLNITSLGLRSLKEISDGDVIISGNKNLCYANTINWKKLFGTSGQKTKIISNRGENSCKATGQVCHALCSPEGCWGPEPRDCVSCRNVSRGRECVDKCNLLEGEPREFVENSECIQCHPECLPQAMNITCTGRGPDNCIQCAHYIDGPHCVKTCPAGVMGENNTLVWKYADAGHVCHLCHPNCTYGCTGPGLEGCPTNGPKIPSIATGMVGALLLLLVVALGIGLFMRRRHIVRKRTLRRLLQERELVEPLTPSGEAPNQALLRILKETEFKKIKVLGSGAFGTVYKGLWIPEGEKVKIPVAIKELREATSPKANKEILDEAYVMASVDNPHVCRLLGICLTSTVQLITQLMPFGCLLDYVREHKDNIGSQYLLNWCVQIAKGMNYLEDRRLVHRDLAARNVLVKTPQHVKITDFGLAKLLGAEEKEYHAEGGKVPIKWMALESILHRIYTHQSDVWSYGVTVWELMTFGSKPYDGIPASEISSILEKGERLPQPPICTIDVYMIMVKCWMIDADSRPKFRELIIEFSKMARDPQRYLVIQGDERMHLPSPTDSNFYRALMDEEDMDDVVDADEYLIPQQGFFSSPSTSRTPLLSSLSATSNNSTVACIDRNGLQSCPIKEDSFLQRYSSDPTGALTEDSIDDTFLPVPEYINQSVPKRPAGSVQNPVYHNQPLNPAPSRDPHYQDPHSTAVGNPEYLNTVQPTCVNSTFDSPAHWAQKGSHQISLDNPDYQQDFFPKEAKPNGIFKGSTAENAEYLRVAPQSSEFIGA

pIC50 [1]: 7.94 | ΔTm [2]: > 3 °C | ΔTm [3]: > 3 °C | ΔTm [4]: > 3 °C | ΔTm [5]: > 3 °C | pIC50 (BaF3 [6]): 6.92 | inhibition [7]: Active | inhibition [8]: Active | inhibition [9]: Active | pIC50 (BaF3 [10]): 6.69
SMILES: COc1cc2ncnc(Nc3cc(Cl)c(F)cc3O)c2cc1O
